# Laboratory results reported in US20150259344A1, “IMIDAZOLE DERIVATIVE” (DAINIPPON SUMITOMO PHARMA CO., LTD., priority 2012, published 2015).
# Target: T1, human α7 nAChR (Homo sapiens, UniProt P36544)
# T1 construct: expressed in transfected cells
# Assay: Evaluation of PAM activity with human α7 nACh receptor stably expressing cells (aequorin luminescence, FDSS7000)
# Assay type: cell-based
# Conditions: 1 μM test compound (values marked *, footnote of Table 25); ACh at EC20; ratio of RLU (Max-Min) to control wells; read-out: α7PAM (%) @1 μM
# Procedure, shortened: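 Human α7 nAChR stable cells loaded with 4 μM Viviren (final) for 4 h at room temperature in the dark. Compounds in Hanks/20 mM HEPES/0.2% BSA were added and luminescence recorded on FDSS7000. PAM activity = RLU (Max-Min) ratio of test wells to control wells.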
# T1 sequence (P36544 23-502): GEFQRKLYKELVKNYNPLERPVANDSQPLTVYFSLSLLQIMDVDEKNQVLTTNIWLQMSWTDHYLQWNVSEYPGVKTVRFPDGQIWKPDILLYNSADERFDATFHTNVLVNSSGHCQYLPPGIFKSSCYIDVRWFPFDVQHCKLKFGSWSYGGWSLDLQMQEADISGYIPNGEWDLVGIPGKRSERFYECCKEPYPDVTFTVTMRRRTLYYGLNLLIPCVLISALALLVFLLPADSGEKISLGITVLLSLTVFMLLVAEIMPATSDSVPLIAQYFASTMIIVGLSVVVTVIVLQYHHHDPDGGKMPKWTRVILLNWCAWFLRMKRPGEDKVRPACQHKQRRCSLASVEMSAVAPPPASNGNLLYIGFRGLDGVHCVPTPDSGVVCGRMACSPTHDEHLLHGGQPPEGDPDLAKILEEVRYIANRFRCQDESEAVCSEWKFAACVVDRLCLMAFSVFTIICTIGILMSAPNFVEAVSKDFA
row,activity at 1 µM [%],Compound
1,364,COc1cc(-c2ncn([C@H]3CC[C@@H](NC(=O)C4CCC4)CC3)c2Cl)ccc1F [Example 191]
2,303,O=C(N[C@H]1CC[C@@H](n2cnc(-c3ccc(F)cc3)c2Cl)CC1)c1ccc(F)cc1 [Example 184]
3,130,O=C(NC1CCOCC1)[C@H]1CC[C@@H](n2cnc(-c3ccc(F)c(F)c3)c2)CC1 [Example 357]
4,212,CC(C)(C)C(=O)N[C@H]1CC[C@@H](n2cnc(-c3ccc(Cl)cc3)c2C#N)CC1 [Example 334]
5,267,CC(C)(F)C(=O)N[C@H]1CC[C@@H](n2cnc(-c3cc(F)c(Cl)cc3F)c2)CC1 [Example 316]
6,600,CC(C)(F)C(=O)N[C@H]1CC[C@@H](n2cnc(-c3cc(OC(F)(F)F)ccc3F)c2)CC1 [Example 304]
7,345,CC(C)(F)C(=O)N[C@H]1CC[C@@H](n2cnc(-c3cc(F)c(F)cc3Cl)c2)CC1 [Example 317]

# Same assay, conditions: 10 μM test compound; ACh at EC20; ratio of RLU (Max-Min) to control wells; read-out: α7PAM (%) @10 μM
row,activity at 10 µM [%],Compound
1,834,CC(C)(F)C(=O)N[C@H]1CC[C@@H](n2cnc(-c3ccc(OC(F)(F)F)cc3)c2)CC1 [Example 278]
2,221,CC(C)(C)C(=O)N[C@H]1CC[C@@H](n2cnc(-c3ccccc3)c2Cl)CC1 [Example 167]
3,866,CC(C)(F)C(=O)N[C@H]1CC[C@@H](n2cnc(-c3ccccc3F)c2)CC1 [Example 297]
4,236,CC(C)(C)C(=O)N[C@H]1CC[C@@H](n2cnc(-c3ccc(OC(F)(F)F)cc3)c2)CC1 [Example 279]
5,169,CC(C)(F)C(=O)N[C@H]1CC[C@@H](n2cnc(-c3ccc(OC(F)(F)F)cc3)c2C#N)CC1 [Example 346]
6,518,Cc1c(-c2ccc(F)cc2)ncn1[C@H]1CC[C@@H](NC(=O)C2CCC(F)(F)CC2)CC1 [Example 353]
7,102,O=C(N[C@H]1CC[C@H](n2cnc(-c3ccccc3)c2Cl)CC1)C1CCCCC1 [Example 206]
8,263,CC(C)(F)C(=O)N[C@H]1CC[C@@H](n2cnc(-c3cccc(C(F)(F)F)c3)c2C#N)CC1 [Example 202]
9,224,O=C(N[C@H]1CC[C@@H](n2cnc(-c3ccccc3)c2Cl)CC1)C1(C(F)(F)F)CC1 [Example 174]
10,187,CC(C)(F)C(=O)N[C@H]1CC[C@@H](n2cnc(-c3cccc(C(F)(F)F)c3)c2Cl)CC1 [Example 193]
11,314,O=C(NC1CCCCC1)N1CCCC(n2cnc(-c3ccc(F)cc3)c2Cl)CC1 (stereo not shown) [Example 241]
12,233,CC(C)(F)C(=O)N[C@H]1CC[C@@H](n2cnc(-c3cc(F)ccc3F)c2C#N)CC1 [Example 341]
13,230,Cc1c(-c2ccc(F)cc2)ncn1[C@H]1CC[C@@H](NC(=O)C(C)(C)C)CC1 [Example 354]
14,398,CC(C)(F)C(=O)N[C@H]1CC[C@@H](n2cnc(-c3cc(Cl)ccc3F)c2)CC1 [Example 284]
15,207,Cc1c(-c2ccc(F)cc2)ncn1[C@H]1CC[C@@H](Nc2cc(C(F)(F)F)ncn2)CC1 [Example 239]
16,800,CC(C)(C)C(=O)N[C@H]1CC[C@@H](n2cnc(-c3ccc(OC(F)(F)F)cc3)c2Cl)CC1 [Example 321]
17,581,O=C(NC1CCOCC1)[C@H]1CC[C@@H](n2cnc(-c3cccc(F)c3)c2Cl)CC1 [Example 359]
18,591,CC(C)(F)C(=O)N[C@H]1CC[C@@H](n2cnc(-c3c(F)cc(F)cc3F)c2)CC1 [Example 314]
19,314,CC(C)(C)C(=O)N[C@H]1CC[C@@H](n2cnc(-c3ccc(Cl)cc3)c2Cl)CC1 [Example 322]
20,309,O=C(NC1CCC(F)(F)CC1)N1CCC(n2cnc(-c3ccncc3)c2Cl)CC1 [Example 136]
21,662,CC(C)(F)C(=O)N[C@H]1CC[C@@H](n2cnc(-c3ccc(F)c(F)c3F)c2)CC1 [Example 312]
22,828,CC(C)(F)C(=O)N[C@H]1CC[C@@H](n2cnc(-c3cc(F)ccc3F)c2)CC1 [Example 301]
23,775,COc1ccc(-c2ncn([C@H]3CC[C@@H](NC(=O)C(C)(C)F)CC3)c2Cl)cc1Cl [Example 178]
24,220,CC(C)(F)C(=O)N[C@H]1CC[C@@H](n2cnc(-c3ccccc3OC(F)(F)F)c2C#N)CC1 [Example 344]
25,962,O=C(NC1CCOCC1)[C@H]1CC[C@@H](n2cnc(-c3cccc(F)c3F)c2Cl)CC1 [Example 371]

# The remaining lines, values behind:
row,Compound,activity at 10 µM [%]
1,Cc1ccc(-c2cn(C3CCN(C(=O)NC4CCCCC4)CC3)cn2)s1 [Example 124],572
2,N#Cc1c(-c2cccc(F)c2F)ncn1[C@@H]1C[C@H]2CC[C@@H](C1)N2C(=O)NC1CCC(F)(F)CC1 [Example 424],210
3,O=C(C1CCC(F)(F)CC1)N1[C@@H]2CC[C@H]1C[C@H](n1cnc(-c3cccc(F)c3F)c1Cl)C2 [Example 457],865
4,O=C(NC1CCCCC1)N1[C@@H]2CC[C@H]1C[C@H](n1cnc(-c3ccc(F)cc3F)c1)C2 [Example 408],140
5,O=C(N[C@H]1CC[C@H](n2cnc(-c3ccccc3)c2)CC1)C1CCC(F)(F)CC1 [Example 205],110
6,O=C(NC1CCC(F)(F)CC1)N1CCC(n2cnc(-c3ccc(OC(F)F)cc3)c2)CC1 [Example 60],616
7,O=C(NC1CCCCC1)N1CCC(n2cnc(-c3cccnc3)c2)CC1 [Example 133],101
8,O=C(C1CCOCC1)N1[C@@H]2CC[C@H]1C[C@@H](n1cnc(-c3cc(F)ccc3F)c1Cl)C2 [Example 438],235
9,O=C(NC1CCC(F)(F)CC1)N1[C@@H]2CC[C@H]1C[C@H](n1cnc(-c3cc(F)ccc3F)c1)C2 [Example 412],423
10,N#Cc1c(-c2cc(F)ccc2F)ncn1[C@H]1CC[C@@H](C(=O)NC2CCOCC2)CC1 [Example 375],457
11,"O=C(NC1CC2CCC1C2)N1CCC(n2cnc(-c3cccc(F)c3)c2)CC1 (stereo not shown) [Example 2, N-(Bicyclo[2.2.1]hept-2-yl)-4-[4-(3-fluorophenyl)-1H-imidazol-1-yl]piperidine-1-carboxamide]",117
12,O=C(NC1CCCC1)N1CCC(n2cnc(-c3ccccc3)c2)CC1 [Example 36],193
13,O=C(NC1CCC(F)(F)CC1)N1[C@@H]2CC[C@H]1C[C@H](n1cnc(-c3cc(F)ccc3F)c1Cl)C2 [Example 419],913
14,N#Cc1c(-c2ccccc2F)ncn1C1CCN(C(=O)C2CC(F)(F)C2)CC1 [Example 270],569
15,O=C(NC1CCCCC1)N1CCC(n2cnc(-c3ccc(F)cc3)c2)CC1 [Example 15],596
16,O=C(NC1CCOCC1)N1[C@@H]2CC[C@H]1C[C@@H](n1cnc(-c3ccc(F)cc3F)c1Cl)C2 [Example 395],869

row,Compound,activity at 10 µM [%]
1,O=C(NC1CCC(F)(F)CC1)N1CCC(n2cnc(-c3cccc(F)c3)c2)CC1 [Example 32],993
2,O=C(NC1CCCCC1)N1CCC(n2cnc(-c3ccc(Cl)s3)c2)CC1 [Example 117],853
3,N#Cc1c(-c2cccc(F)c2F)ncn1[C@H]1C[C@H]2CC[C@@H](C1)N2C(=O)C1CCC(F)(F)CC1 [Example 445],272
4,"O=C(C1CCC(F)(F)CC1)N1CCC(n2cnc(-c3ccccc3)c2)CC1 [Example 6, [4-(4-Phenyl-1H-imidazol-1-yl)piperidin-1-yl](4,4-difluorocyclohexyl)methanone]",292
5,COc1cccc(-c2cn(C3CCN(C(=O)NC4CCCCC4)CC3)cn2)c1 [Example 71],422
6,O=C(NC1CCOCC1)N1CCC(n2cnc(-c3ccc(C(F)(F)F)cc3)c2)CC1 [Example 29],378
7,O=C(C1CCC(F)(F)CC1)N1[C@@H]2CC[C@H]1C[C@H](n1cnc(-c3cccc(F)c3F)c1)C2 [Example 450],128
8,O=C(NC1CCOCC1)N1CCC(n2cnc(-c3ccc(F)cc3)c2)CC1 [Example 245],197
9,Cc1c(-c2ccc(F)cc2)ncn1[C@H]1CC[C@@H](C(=O)NC2CCOCC2)CC1 [Example 381],377
10,Cc1c(-c2ccc(F)cc2)ncn1C1CCN(C(=O)NC(C)(C)C)CC1 [Example 257],439
11,O=C(NC1CCCCCC1)N1CCC(n2cnc(-c3ccccc3)c2)CC1 [Example 51],520
12,O=C(C1CCC(F)(F)CC1)N1[C@@H]2CC[C@H]1C[C@@H](n1cnc(-c3cccc(F)c3F)c1Cl)C2 [Example 439],813
13,N#Cc1c(-c2cc(F)ccc2F)ncn1[C@H]1C[C@H]2CC[C@@H](C1)N2C(=O)C1CCC(F)(F)CC1 [Example 444],208
14,O=C(C1CCOCC1)N1CCC(n2cnc(-c3ccc(F)cc3)c2Cl)CC1 [Example 151],155
15,Cc1nc(-c2ccccc2)cn1C1CCN(C(=O)NC2CCCCC2)CC1 [Example 114],133

# Same assay, conditions: GH4-C1, 10 μM test compound; ratio of RLU (Max-Min) of test wells to control wells after ACh at EC20; GH4C1 cells expressing human α7 nAChR and aequorin; read-out: α7PAM (%) @10 μM
row,activity at 10 µM [%],Compound
1,631,"FC(F)(F)c1cc(N[C@H]2CC[C@@H](n3cnc(-c4ccccc4)c3)CC2)ncn1 [Example 235, N-[cis-4-(4-Phenyl-1H-imidazol-1-yl)cyclohexyl]-6-(trifluoromethyl)pyrimidin-4-amine]"

# Same assay, conditions: comparison across Tables 18 to 25
row,PAM activity for α7 nAChR (in words),Compound
1,stronger PAM activity than others,O=C(NC1CCOCC1)[C@H]1CC[C@@H](n2cnc(-c3ccc(Cl)cc3)c2Cl)CC1 [Example 363]
2,stronger PAM activity than others,O=C(NC1CCC(F)(F)CC1)N1CCC(n2cnc(-c3ccc(Cl)cc3)c2)CC1 [Example 22]
3,stronger PAM activity than others,Cc1ccc(-c2cn(C3CCN(C(=O)NC4CCCCC4)CC3)cn2)cc1 [Example 18]
